The record followed here is paper PMC5983811, “Protein Tyrosine Phosphatase 1B Inhibition and Glucose Uptake Potentials of Mulberrofuran G, Albanol B, and Kuwanon G from Root Bark of Morus alba L. in Insulin-Resistant HepG2 Cells: An In Vitro and In Silico Study” (International Journal of Molecular Sciences, 2018).

Molecules are shown by their SMILES.

Data set [1] relates to insulin-resistant HepG2 cells. Nature of the data set: Glucose uptake assay (2-NBDG) in insulin-resistant HepG2 cells. It counts as cell-based, human. As for the experimental part: (§1) HepG2 (human hepatocarcinoma) cells, purchased from the American Type Culture Collection (HB-8065; Manassas, VA, USA), were maintained in 10% FBS MEM at 37 °C in a humidified atmosphere with 5% CO2. Medium was changed every 48 h. Cytotoxicity was evaluated using the MTT assay. Following the method previously described, insulin-resistant HepG2 cell model was established. All the other experiment conditions and procedures were similar to those reported in our previous paper.
The glucose uptake rate in insulin-resistant HepG2 cells was assessed using the fluorescent D-glucose analog 2-NBDG. Once the induction of insulin resistance was accomplished, cell solutions in the wells were substituted with different concentrations of 1–3 or a positive control, rosiglitazone (10 µM), prepared in serum-free MEM (SFMEM) in respective groups. After 24 h incubation with samples, the media in the wells was replaced with 100 nM insulin diluted in SFMEM and incubated for 30 min. Cells were then incubated with 40 μM 2-NBDG for 30 min and washed with ice-cold PBS. The fluorescence intensity of 2-NBDG was measured on a fluorescence microplate reader (FL ×800, Bio-Tek Instruments, Inc., Winooski, VT, USA) at 485 nm excitation and 528 nm emission wavelengths. Six replicate wells were established, and each experiment was repeated three times.

Data set [2] deals with α-glucosidase. Nature of the data set: α-Glucosidase inhibitory assay (pNPG substrate) and kinetic study. It counts as biochemical. To be noted: for Ki: Dixon plot; for α-Glucosidase Inhibition Type: Lineweaver-Burk plot; for IC50: pNPG substrate, mean ± SEM of triplicate experiments. The method, then: The enzyme inhibition study was carried out spectrophotometrically using the procedure previously reported. The α-glucosidase activity was determined by measuring release of […] at 405 nm using a microplate spectrophotometer (Molecular Devices).
(§2) Lineweaver–Burk plots for inhibition of PTP1B were obtained in the presence of various concentrations of the test compounds (0, 0.18, 0.44 and 1.78 μM for 1; 0, 0.27, 0.54, and 1.07 μM for 2; 0, 0.87, 1.44, and 2.89 μM for 3). Similarly, for the inhibition of α-glucosidase, text concentrations used were 0, 0.71, 1.07, and 1.78 μM for 1; 0, 0.36, 0.9, and 1.79 μM for 2 and 0, 0.72, 2.88, and 5.77 μM for 3. The enzymatic procedure consisted of the same aforementioned assay method. The inhibition constants (Ki) were determined via interpretation of the Dixon plots, where the value of the x-axis implies −Ki.

Data set [3] in a line: Cytotoxicity in HepG2 cells (MTT assay). It is filed as cell-based. To be noted: human, read-out: viable cell %. As for the experimental part:
In order to determine safe concentrations for cell experiments, the cytotoxicity of our test compounds in HepG2 cells was evaluated using an 3-(4,5-dimethylthiazol-2-yl)-2,5-diphenyltetrazolium bromide (MTT) assay. […] However, at 10 µM, the level of toxicity was high for 1 (viable cell %; 36), followed by 2 (viable cell %; 73) and 3 (viable cell %; 85). Therefore, 1.25, 2.5, and 5 µM concentrations were used in further cell experiments.
as §1

Data set [4] has as its target T1, PTP1B (human recombinant) (Homo sapiens, UniProt P18031).
T1 construct: purchased Biomol International LP (Plymouth Meeting, PA, USA)
T1 sequence (P18031 1-435): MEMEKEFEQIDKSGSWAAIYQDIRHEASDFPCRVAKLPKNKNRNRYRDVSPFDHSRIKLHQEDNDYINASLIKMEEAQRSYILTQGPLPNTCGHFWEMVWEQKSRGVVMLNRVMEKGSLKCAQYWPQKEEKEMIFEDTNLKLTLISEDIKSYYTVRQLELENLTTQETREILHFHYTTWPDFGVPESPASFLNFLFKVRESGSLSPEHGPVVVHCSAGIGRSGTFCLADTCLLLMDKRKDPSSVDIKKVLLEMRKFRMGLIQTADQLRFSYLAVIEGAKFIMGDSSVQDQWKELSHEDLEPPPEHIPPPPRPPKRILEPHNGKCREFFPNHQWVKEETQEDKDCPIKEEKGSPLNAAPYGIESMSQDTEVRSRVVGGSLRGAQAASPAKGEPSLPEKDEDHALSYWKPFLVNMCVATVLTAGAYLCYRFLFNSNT
Nature of the data set: PTP1B inhibitory assay (pNPP substrate) and kinetic study. It is filed as biochemical. To be noted: for Ki: Dixon plot, read-out: Protein Tyrosine Phosphatase 1B Ki; for Protein Tyrosine Phosphatase 1B Inhibition Type: Lineweaver-Burk plot; for IC50: pNPP substrate, mean ± SEM of triplicate experiments, read-out: Protein Tyrosine Phosphatase 1B IC50. As for the experimental part: PTP1B inhibitory activity was evaluated using pNPP [44]. Recombinant PTP1B enzyme (0.5 units diluted in PTP1B reaction buffer) was added to a plate with or without sample. The plate was pre-incubated at 37 °C for 10 min, and then substrate (2 mM pNPP) was added. Following incubation at 37 °C for 15 min, the enzymatic reaction was terminated by addition of 10 M NaOH. The absorbance was measured at 405 nm using a microplate spectrophotometer (Molecular Devices, Sunnyvale, CA, USA).
as §2

Data set [5] has as its system PTP1B expression. Briefly: PTP1B expression level in insulin-resistant HepG2 cells (Western blot). It counts as cell-based, human. As for the experimental part:
Insulin-resistant HepG2 cells were exposed to different concentrations of 1–3 or rosiglitazone (10 μM) in 24-well plates. After 24 h of incubation with samples, the media in the wells was replaced with 100 nM insulin diluted in SFMEM and incubated at 37 °C for 30 min. Cells were then washed twice with ice-cold PBS, collected, and lysed with sample buffer (50 mM HEPES, pH 7.5, 150 mM NaCl, 2.5 mM EDTA, 0.5% NP-40, 1 mM PMSF, 1 mM DTT, 0.2% aprotinin, 0.5% leupeptin, 20 mM NaF, and 1 mM Na3VO4). Protein was quantified by the modified Bradford protein assay kit using BSA as a standard. Total protein (50 μg) was electrophoresed on sodium dodecyl sulfate-polyacrylamide gels (Bio-Rad, Hercules, CA, USA) and then transferred to polyvinylidene difluoride (PVDF) membranes (Immobilon-P; Millipore, Burlington, MA, USA) using the Pierce G2 Fast Blotter (Thermo Fisher Scientific Inc., Fair Lawn, NJ, USA) at 100 V for 60 min in a standard semi-dry system. Membranes were blocked in blocking buffer (5% skim milk powder in TBS-Tween buffer containing 10 mM Tris, 100 mM NaCl, and 0.1% Tween-20, pH 7.4) and incubated overnight with primary antibodies at 4 °C on a shaker, followed by incubation with appropriate secondary antibodies for 2 h at room temperature. The membranes were washed three times with TBST (3 × 10 min each) and the protein bands were visualized with the Supersignal West Pico Chemiluminescence Substrate (Pierce, Rockford, IL, USA) on X-ray films (Kodak, Rochester, NY, USA) and quantitated using CS analyzer software (Atto Corp., Tokyo, Japan).

In the case of `CC1=C[C@H]2c3c(O)cc(-c4cc5ccc(O)cc5o4)cc3O[C@@]3(c4ccc(O)cc4O)Oc4cc(O)ccc4[C@H](C1)[C@@H]23` [Compound 1, mulberrofuran G], the “relative glucose uptake percentage” value in data set [1] (5 µM) turned out to be 140%. In data set [2], the inhibition constant (Ki) turned out to be 1.2 µM, the “α-Glucosidase Inhibition Type” value was “Mixed type” and the IC50 amounted to 1.67 ± 0.02 µM. Also, the viability at 10 µM in data set [3] was 36%. In addition, in data set [4], the Ki was 0.7 µM, the “Protein Tyrosine Phosphatase 1B Inhibition Type” value is “Mixed type” and the half-maximal inhibitory concentration (IC50) was determined as 0.57 ± 0.04 µM. Also, in data set [5] (2.5 and 5 μM), the PTP1B expression entry is on record as “diminished the PTP1B expression almost completely”.
For `CC(C)=CCc1c(-c2ccc(O)cc2O)oc2c([C@H]3C=C(C)C[C@@H](c4ccc(O)cc4O)[C@@H]3C(=O)c3ccc(O)cc3O)c(O)cc(O)c2c1=O` [Compound 3, kuwanon G], in data set [2], the inhibitory constant (Ki) came to 2.51 µM, the “α-Glucosidase Inhibition Type” value is on record as “Mixed type” and inhibition was half-maximal at 2.35 ± 0.03 µM (IC50). In data set [3], the viability at 10 µM is 85%. Also, in data set [4], the Ki turned out to be 1.98 µM, the “Protein Tyrosine Phosphatase 1B Inhibition Type” value was “Mixed type” and the IC50 is 2.26 ± 0.03 µM. Moreover, the PTP1B expression result in data set [5] (concentration dependent) is “downregulated the expression towards normal”.
Regarding `Cc1cc2c3c(c1)-c1c(O)cc(-c4cc5ccc(O)cc5o4)cc1O[C@@]3(c1ccc(O)cc1O)Oc1cc(O)ccc1-2` [Compounds 2], the viability at 10 µM in data set [3] was 73%. Also, in data set [4], the inhibition constant (Ki) amounted to 1.02 µM and the half-inhibitory concentration (IC50) amounted to 0.8 ± 0.02 µM.
As for `CN(CCOc1ccc(CC2SC(=O)NC2=O)cc1)c1ccccn1` (stereo not shown) [rosiglitazone, reference compound], in data set [1] (10 µM), the “relative % glucose uptake” value stood at 123%. In addition, the PTP1B expression entry in data set [5] (10 μM) is “declined”.
